From patent publication US20090233910A1, “Npy antagonists, preparation and uses” (CEREP, priority 2005, published 2009)
Marks after values point to notes of the source that are not given here.

How the values were obtained:
[1] = target: T1, NPY Y1 receptor (Homo sapiens, UniProt P25929); assay: cAMP measurement test in SK-N-MC cells (shift of NPY dose-effect curves, forskoline-stimulated); assay type: cell-based; conditions: Schild analysis vs NPY, read-out: pA2 Y1 (converted)
T1 construct: host or cells: SK-N-MC cells (whole-cell suspension)
T1 sequence (P25929 1-384): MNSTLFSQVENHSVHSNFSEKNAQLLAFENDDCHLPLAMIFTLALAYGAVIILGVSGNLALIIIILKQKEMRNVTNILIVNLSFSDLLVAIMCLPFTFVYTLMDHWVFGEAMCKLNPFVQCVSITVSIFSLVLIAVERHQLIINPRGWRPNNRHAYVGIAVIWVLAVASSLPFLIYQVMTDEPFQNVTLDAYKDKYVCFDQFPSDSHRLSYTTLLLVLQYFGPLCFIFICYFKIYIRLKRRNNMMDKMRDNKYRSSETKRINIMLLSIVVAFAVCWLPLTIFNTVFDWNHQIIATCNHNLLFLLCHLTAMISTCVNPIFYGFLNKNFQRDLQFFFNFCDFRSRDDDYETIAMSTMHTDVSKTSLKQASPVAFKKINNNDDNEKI
Protocol: The SK-N-MC cells are cultured in 96-well plates. After aspirating the culture medium, the cells are washed with a phosphate buffer pH 7.4 (Invitrogen ref. 14190-094), then lifted with a Versene solution (Invitrogen, ref 15040-033). The cells are centrifuged at 500×g for 10 minutes at 4° C. They are resuspended in a stimulation buffer containing isobutyl-methyl-xanthine in sufficient concentration to inhibit the phosphodiesterases (Flashplate kit, Perkin Elmer). The tested compounds are added 10 minutes before depositing the NPY (Bachem, H3322) in variable concentration, then the 300 nM forskoline (Sigma, F6886). The cells are in cubated 1 hour at ambient temperature to allow cAMP production whose levels are measured using the Flashplate method after 2 hours incubation with the cAMP tracer [^125I]. The results are expressed in pA2 form observing the displacement of NPY dose-effect curves in the absence and presence of increasing concentrations of test compound [Schild, 1949, pAx and competitive drug antagonism, Br. J. Pharmacol., 4, 277-280].

[2] = target: T1, NPY Y1 receptor; assay: Binding test to the NPY Y1 receptor ([125I]-PYY, SK-N-MC cell suspension); conditions: SK-N-MC cells, 25 pM [125I]-PYY
Protocol: The SK-N-MC cells (ATCC HBT10) are cultured at 37° C. in MEM medium (minimum essential medium) free of phenol red (Invitrogen ref. 04194565M) containing 10% foetal calf serum (Invitrogen ref. 10270-106), 1% non-essential aminoacids (Invitrogen ref. 11140-035), 1% sodium pyruvate (Invitrogen ref. 11360-039), 1% glutamine (Invitrogen ref. 25030-032), 100 IU/ml of penicillin and 100 μg/ml of streptomycin (Invitrogen ref. 15140-122) in a humid atmosphere containing 5% CO2.
After aspirating the culture medium, the cells are washed with a phosphate buffer pH 7.4 (Invitrogen ref. 14190-094), then lifted with a Versene solution (Invitrogen, ref 15040-033). The cells are centrifuged at 500×g for 10 minutes at 4° C. then resuspended in a freeze buffer pH 7.4 containing 50 mM HEPES (N-2-hydroxyethylpiperazine-N′-2-ethanesulfonic acid), 145 mM sodium chloride, 2.6 mM calcium chloride, 1 mM magnesium chloride, 10 mM glucose, and 1 mg/ml bovine albumin. The cell suspension is aliquoted into twenty million cells per milliliter of buffer and stored at −70° C.
The cell suspension is incubated 2 hours at 37° C. in an incubation buffer pH 7.4 containing 50 mM HEPES, 2.5 mM calcium chloride, 1 mM magnesium chloride, 0.025% sodium azide, 1 mg/ml bovine albumin and 25 pM [^125I]-PYY (Perkin Elmer, NEX341). The reaction is halted by filtering through a GF/B filter pre-treated with 0.3% PEI, and washed three times with 1 ml of 50 mM TRIS buffer [tris(hydroxymethyl)aminomethane]/HCl, pH 7.4. The radioactivity deposited on the filter is measured by liquid scintillation count (TopCount, Packard). Non-specific binding is determined in the presence of 1 μM NPY (Bachem, H3322). Results are expressed as IC50 values in nM calculated by non-linear regression with 4 parameters.

[3] = test system: fasting mice; assay: Food intake by fasting mice; assay type: in vivo; conditions: fasting male OF1 mice, 30 mg/kg ip
Protocol: The day before the experiment at 16 h, male OF1 mice (Charles River, France) with body weight varying between 20 and 25 g, are left to fast in individual cages with unlimited drink water. On the day of the experiment, at 9 h30±15 min, a control batch of 10 mice was given the solvent (5% DMSO, Merck, 1.02931.1000, 5% cremophor EL, Sigma C-5135, physiological saline solution to complete to volume) via intra peritoneal route or per os in a volume of 10 ml/kg, and the other batches of 10 mice were given the products to be tested dissolved in the solvent (10 or 30 mg/kg in a volume of 10 ml/kg ip ou po). Individual feed troughs filled with food (A04, UAR, France) were weighed then placed in the cages, exactly 30 min or 60.min after treating the mice ip or per os, respectively. The feed troughs were then weighed 1 h, 2 h, 3 h, 4 h and when applicable 6 h and 24 h after placing the feed troughs in the cages. Food consumptions are expressed in grams, as a mean±standard error (S.E.M). (n=10). Statistical analysis used ANOVA followed by Dunnett's multiple comparison test. The level of significance is obtained for p<0.05.

**Q.** How did the Kb [1] turn out when `CCC(CC)NC(=O)Nc1ccc(Oc2cnc(NC(=O)c3ccc(OC4CCN(C(C)C)CC4)cc3)s2)c(OC)c1` [Example 2, N-(5-{4-[3-(1-Ethyl-propyl)-ureido]-2-methoxy-phenoxy}-thiazol-2-yl)-4-(1-isopropyl-piperidin-4-yloxy)-benzamide] was run?
**A.** 10 nM

**Q.** And the IC50 [2]?
**A.** 15 nM

**Q.** With `CCOc1cc(NC(=O)NC(CC)CC)ccc1Oc1ccc(NC(=O)c2ccc(O[C@H]3C[C@H]4CC[C@@H](C3)N4C)cc2)cc1` [Example 40, N-(4-{2-Ethoxy-4-[3-(1-ethyl-propyl)-ureido]-phenoxy}-phenyl)-4-(8-methyl-8-aza-bicyclo[3.2.1]oct-(3-endo)-yloxy)-benzamide] as the compound, how does the Kb [1] read?
**A.** 2.24 nM

**Q.** What about the IC50 [2] of the same compound?
**A.** 1.7 nM

**Q.** For `CCCCN1CCC(Oc2ccc(C(=O)Nc3ccc(Oc4cc(F)c(NC(=O)NC(CC)CC)cc4OC)cc3)cc2C)CC1` [Example 312, 4-(1-Butyl-piperidin-4-yloxy)-N-(4-{4-[3-(1-ethyl-propyl)-ureido]-5-fluoro-2-methoxy-phenoxy}-phenyl)-3-methyl-benzamide], which “Accumulated inhibition of food intake after ip administering of 30 mg/kg, 0-1 h” value ([3]; 0-1 h) is on record?
**A.** 42%*

**Q.** And the “Accumulated inhibition of food intake after ip administering of 30 mg/kg, 0-2 h” value ([3]; 0-2 h)?
**A.** 21%

**Q.** And the “Accumulated inhibition of food intake after ip administering of 30 mg/kg, 0-3 h” value ([3]; 0-3 h)?
**A.** 33%**

**Q.** And the “Accumulated inhibition of food intake after ip administering of 30 mg/kg, 0-4 h” value ([3]; 0-4 h)?
**A.** 27%*
